# Values of other authors in US20060052448A1, “Use of methyl pyruvate or methyl pyruvic acid for the treatment of diseases of the nervous system and for protecting a human central nervous system against neuronal degeneration caused by defective intracellular energy production” (priority 2004, published 2006).
# Read-outs that look alike come from different tables or passages of the source.
# Key:
# malate-aspartate shuttle [1] = details: mGPDH-deficient islets, both shuttles halted
# malate-aspartate shuttle [2] = tested on: malate-aspartate shuttle
# Na(+)-K(+)-ATPase = details: 10 microM
# pancreatic beta-cells [3] = tested on: pancreatic beta-cells
# pancreatic beta-cells [4] = tested on: pancreatic beta-cells; remark: listed apart in the source
# [5] = tested on: isolated beta-cell mitochondria; details: in combination with glutamate
# whole islets = details: 5 mM
# K(ATP) channels = molecular target: T1, K(ATP) channels (Homo sapiens, UniProt Q09428+Q14654)
# T1 construct: endogenous in cells
# [6] = tested on: Jurkat T-lymphocyte mitochondria
# [7] = tested on: isolated rat pancreatic islets
# pancreatic beta-cells [8] = tested on: pancreatic beta-cells; remark: listed apart in the source
# [9] = tested on: porcine carotid artery strips
# [10] = tested on: porcine carotid artery strips; details: 10 mM in PSS
# T1 sequence (Q14654 whole entry): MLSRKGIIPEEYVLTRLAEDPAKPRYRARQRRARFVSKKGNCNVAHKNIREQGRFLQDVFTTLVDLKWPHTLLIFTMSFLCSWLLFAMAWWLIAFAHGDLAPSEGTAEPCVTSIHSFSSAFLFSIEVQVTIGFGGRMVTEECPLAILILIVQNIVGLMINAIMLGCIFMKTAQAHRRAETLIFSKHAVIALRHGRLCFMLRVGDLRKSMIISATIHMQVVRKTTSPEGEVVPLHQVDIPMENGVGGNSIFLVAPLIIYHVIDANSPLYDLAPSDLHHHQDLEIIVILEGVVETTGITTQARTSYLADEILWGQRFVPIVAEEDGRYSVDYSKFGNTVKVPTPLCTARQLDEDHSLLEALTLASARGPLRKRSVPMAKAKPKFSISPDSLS
# T1 sequence (Q09428 whole entry): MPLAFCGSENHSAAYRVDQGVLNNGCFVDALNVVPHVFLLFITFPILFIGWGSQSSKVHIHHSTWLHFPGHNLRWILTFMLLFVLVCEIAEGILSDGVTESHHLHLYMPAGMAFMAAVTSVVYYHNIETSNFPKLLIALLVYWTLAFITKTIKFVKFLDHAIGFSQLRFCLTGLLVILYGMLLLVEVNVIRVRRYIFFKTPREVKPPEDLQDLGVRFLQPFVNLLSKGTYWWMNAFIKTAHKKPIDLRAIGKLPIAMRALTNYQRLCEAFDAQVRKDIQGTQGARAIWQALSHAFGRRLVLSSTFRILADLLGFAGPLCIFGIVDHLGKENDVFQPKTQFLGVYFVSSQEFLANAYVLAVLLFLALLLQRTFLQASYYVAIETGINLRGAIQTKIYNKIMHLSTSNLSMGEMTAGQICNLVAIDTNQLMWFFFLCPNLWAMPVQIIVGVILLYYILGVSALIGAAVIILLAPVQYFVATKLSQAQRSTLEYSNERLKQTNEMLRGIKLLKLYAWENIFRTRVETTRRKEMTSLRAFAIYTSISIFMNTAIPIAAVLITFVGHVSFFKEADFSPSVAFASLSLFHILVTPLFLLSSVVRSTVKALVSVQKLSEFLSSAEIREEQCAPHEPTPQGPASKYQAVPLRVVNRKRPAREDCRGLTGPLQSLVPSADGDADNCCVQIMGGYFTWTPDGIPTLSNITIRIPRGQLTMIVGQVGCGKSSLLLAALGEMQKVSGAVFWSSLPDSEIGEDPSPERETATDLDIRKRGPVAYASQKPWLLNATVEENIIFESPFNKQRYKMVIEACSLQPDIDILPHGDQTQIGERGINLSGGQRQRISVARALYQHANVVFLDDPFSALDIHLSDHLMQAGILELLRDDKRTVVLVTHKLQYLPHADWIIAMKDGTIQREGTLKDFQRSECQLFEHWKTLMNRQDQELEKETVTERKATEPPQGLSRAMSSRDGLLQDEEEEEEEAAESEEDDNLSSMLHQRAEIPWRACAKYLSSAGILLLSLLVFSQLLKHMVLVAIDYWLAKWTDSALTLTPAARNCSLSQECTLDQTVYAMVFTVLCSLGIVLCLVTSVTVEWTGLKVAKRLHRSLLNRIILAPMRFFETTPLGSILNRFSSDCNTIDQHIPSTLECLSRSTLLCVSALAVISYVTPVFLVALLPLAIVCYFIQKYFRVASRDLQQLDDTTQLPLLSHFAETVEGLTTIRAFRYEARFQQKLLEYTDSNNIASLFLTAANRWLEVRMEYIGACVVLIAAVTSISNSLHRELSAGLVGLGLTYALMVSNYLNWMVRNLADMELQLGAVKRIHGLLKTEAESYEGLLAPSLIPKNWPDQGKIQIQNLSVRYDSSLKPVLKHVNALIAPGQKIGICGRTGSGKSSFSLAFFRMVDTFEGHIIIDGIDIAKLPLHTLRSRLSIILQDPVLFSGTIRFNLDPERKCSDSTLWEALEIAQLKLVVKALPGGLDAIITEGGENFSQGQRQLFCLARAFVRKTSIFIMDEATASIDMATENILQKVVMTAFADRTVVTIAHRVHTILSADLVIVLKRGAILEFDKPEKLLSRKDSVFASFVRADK
compound,measurement,setting,value
NOCC(=O)O [amino-oxyacetic acid],glucose-induced insulin secretion,malate-aspartate shuttle [1],almost completely abrogated
same,negative shift in cytosolic NAD+/NADH redox potential,malate-aspartate shuttle [2],26 mV
C[C@@H]1O[C@@H](O[C@H]2C[C@@H](O)[C@]3(CO)[C@H]4[C@H](O)C[C@]5(C)[C@@H](C6=CC(=O)OC6)CC[C@]5(O)[C@@H]4CC[C@]3(O)C2)[C@H](O)[C@H](O)[C@H]1O [ouabain],glycolysis and lactate production,Na(+)-K(+)-ATPase,decreased glycolysis and lactate production
COC(=O)C(C)=O [methyl pyruvate],increase in insulin secretion relative to that induced by glucose,pancreatic beta-cells [3],6 fold
same,concentration of maximal effect on insulin secretion,pancreatic beta-cells [3]; absence of glucose,5 mM
same,depolarization of the beta-cell membrane potential,pancreatic beta-cells [4]; 5-20 mM,depolarized the beta-cell in a concentration-dependent manner
same,electrical activity,pancreatic beta-cells [4]; in the presence of 0.5 mM glucose,elicited electrical activity
same,ATP production (accumulation of ATP in the medium),[5],higher than that induced by pyruvate/glutamate
same,effect on ATP/ADP ratio in whole islets,whole islets,no effect
same,K(ATP) current in standard whole-cell configuration,K(ATP) channels,inhibited
same,block of KATP,K(ATP) channels,produced a block of KATP
same,single-channel currents in inside-out patches,K(ATP) channels,blocked
same,cation current across the inner mitochondrial membrane,[6],directly inhibited
same,high concentration of the methyl ester giving negative insulinotropic action,[7]; and/or high D-glucose (16.7 mM),20.0 mM
same,concentration of the ester at which positive insulinotropic action prevailed,"[7]; low D-glucose, 2.8 to 8.3 mM",≤ 10.0 mM
same,ATP production or ATP/ADP ratio,pancreatic beta-cells [8],did not influence
same,NAD(P)H autofluorescence,pancreatic beta-cells [8],slightly decreased
same,NADH and NADPH response (NAD(P)H imaging and LipDH autofluorescence),pancreatic beta-cells [8],stimulated a robust NADH and NADPH response
same,cytosolic free Ca(2+) concentration,pancreatic beta-cells [8]; after an initial decrease,increased
[Cl-].[K+] [KCl],change in resting tone,"[9]; 10 mM KCl, glucose-PSS",-0.8 ± 0.8 g
same,change in resting tone (increased contraction),"[9]; 10 mM KCl, lactate-PSS",1.5 ± 0.7 g
same,change in resting tone,"[9]; 10 mM KCl, pyruvate-PSS",-2.1 ± 0.8 g
same,EC50,"[9]; in glucose, read-out: EC50 of KCl concentration-response curve",32.1 ± 0.9 mM
CC(O)C(=O)O (stereo not drawn) [lactate],increase in O2 consumption,[10],without effect
